Consider two compounds from patent US5486511A, “4-amino-17β-(cyclopropyloxy)androst-4-en-3-one, 4-amino-17β-(cyclopropylamino)androst-4-en-3-one and related compounds as C17-20 lyase and 5α-reductase” (Merrell Dow Pharmaceuticals Inc., priority 1994, dated 1996).

The target in experiment [1] is T1, cynomolgus monkey C17,20 lyase (Macaca fascicularis, UniProt Q2XVA1).
T1 construct: microsomes were isolated from human, cynomolgus monkey, dog, rat or athymic nude mouse testicular tissue; from tissue; host or cells: cynomolgus monkey testis microsomes
T1 sequence (Q2XVA1 1-508): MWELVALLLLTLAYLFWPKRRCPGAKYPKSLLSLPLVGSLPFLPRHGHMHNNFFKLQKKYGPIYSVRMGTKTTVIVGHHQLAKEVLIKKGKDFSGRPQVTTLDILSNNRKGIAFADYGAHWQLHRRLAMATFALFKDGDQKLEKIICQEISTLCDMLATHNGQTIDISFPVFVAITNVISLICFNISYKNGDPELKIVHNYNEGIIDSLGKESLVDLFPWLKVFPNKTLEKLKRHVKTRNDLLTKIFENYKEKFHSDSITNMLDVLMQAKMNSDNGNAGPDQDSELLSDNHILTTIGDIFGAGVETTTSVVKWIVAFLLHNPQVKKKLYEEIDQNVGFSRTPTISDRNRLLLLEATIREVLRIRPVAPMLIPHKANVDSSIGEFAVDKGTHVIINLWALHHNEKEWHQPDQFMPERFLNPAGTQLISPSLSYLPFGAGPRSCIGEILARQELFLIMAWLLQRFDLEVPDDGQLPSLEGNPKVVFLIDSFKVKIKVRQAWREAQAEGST
The experiment can be described thus: Inhibition of cynomolgus monkey steroid C17,20 lyase (testicular microsomes), time dependent, Kitz-Wilson. It counts as biochemical. Here is the method: The activity of the present compounds as inhibitors of steroid C17,20 lyase was established using microsomal preparations of the steroid C17,20 lyase enzyme from human or laboratory animal testes. Human testes used for this purpose were obtained from therapeutic orchiectomies. Specifically, microsomes were isolated from human, cynomolgus monkey, dog, rat or athymic nude mouse testicular tissue. The compound to be tested was dissolved in dimethyl sulfoxide and diluted in 0.05M potassium phosphate buffer to give the desired concentrations of the test compound. The potassium phosphate buffer was at pH 7.4 for the human, monkey and dog lyase assays and at pH 7.2 for the rat and athymic nude mouse lyase assays. Assays also contained 1 mM NADPH, 5 mM glucose-6-phosphate, 1 IU/ml glucose-6-phosphate dehydrogenase (an NADPH regenerating system) and microsomal protein in a total volume of 0.2 mL. Control assays contained all components including dimethyl sulfoxide, but with no test compound. All assays were performed in duplicate. For determination of time dependent C17,20 lyase inactivation, the test compound was incubated with 20 to 60 μg/ml microsomal protein, buffer, and the NADPH regenerating system described above at 34° C. for 0 or 40 minutes. Aliquots (180 μl) were then removed and assayed for enzyme activity by addition to tritiated steroid substrate plus unlabeled steroid substrate to give a 200 μl total assay volume, and were subsequently incubated at 34° C. for 6 minutes. For determination of reversible inhibition by the test compound, the reaction was initiated by addition of substrate. The radiolabeled substrate used for human, cynomolgus monkey and dog lyase was [7-^3 H]-17α-hydroxypregnenolone, 11.2 Ci/mmole, 0.2 μCi total activity per assay. Unlabeled 17α-hydroxypregnenolone was added to give a total concentration of 1.0 μM or 0.3 μM for the human and monkey enzymes, and 0.08 μM for the canine enzyme. […] The radiolabeled substrate used for the rodent enzymes were [1,2-^3 H]-17α-hydroxyprogesterone (40-57 Ci/mmol; 0.2 μCi per assay). Unlabeled 17α-hydroxyprogesterone was added to give a total concentration of 0.1 μM for the rat enzyme (Km =0.1 μM) and 0.03 μM (Km =0.03 μM) for the athymic nude mouse enzyme. The total assay volume was 200 μl. The complete assay was incubated at 34° C. for 6 minutes. Each reaction was stopped by the addition of 5 ml of chloroform:methanol (2:1). […] Radioactivity in the steroid peaks was measured by a Radiomatic Model HS Flo-One detector.
(§1) The enzyme activity for each incubate was calculated from the percent conversion of substrate to products, and the results were expressed as percent inhibition of control. […] The Ki and kinact for time dependent inhibitors were determined by graphical analysis of Kitz-Wilson plots. […]

Experiment [2] addresses T2, human lyase (Homo sapiens, UniProt P05093).
T2 construct: microsomes were isolated from human, cynomolgus monkey, dog, rat or athymic nude mouse testicular tissue; from tissue; host or cells: human testis microsomes (therapeutic orchiectomies)
T2 sequence (P05093 1-508): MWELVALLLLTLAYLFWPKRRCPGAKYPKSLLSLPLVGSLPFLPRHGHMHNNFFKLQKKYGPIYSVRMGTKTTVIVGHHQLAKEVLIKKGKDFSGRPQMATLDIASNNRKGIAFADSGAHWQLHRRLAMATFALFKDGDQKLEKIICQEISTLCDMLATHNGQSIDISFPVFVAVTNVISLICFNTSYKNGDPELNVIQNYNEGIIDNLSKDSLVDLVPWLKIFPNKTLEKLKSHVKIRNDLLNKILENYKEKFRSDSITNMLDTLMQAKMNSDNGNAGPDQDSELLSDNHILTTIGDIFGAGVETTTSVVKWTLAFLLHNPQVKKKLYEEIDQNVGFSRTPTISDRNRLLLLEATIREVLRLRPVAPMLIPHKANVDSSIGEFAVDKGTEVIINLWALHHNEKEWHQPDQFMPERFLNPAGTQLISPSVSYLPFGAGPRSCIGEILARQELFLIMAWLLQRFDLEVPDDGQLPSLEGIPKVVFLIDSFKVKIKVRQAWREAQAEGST
As to the kind of experiment: Inhibition of human steroid C17,20 lyase (testicular microsomes). The class given is biochemical. The procedure: The activity of the present compounds as inhibitors of steroid C17,20 lyase was established using microsomal preparations of the steroid C17,20 lyase enzyme from human or laboratory animal testes. Human testes used for this purpose were obtained from therapeutic orchiectomies. Specifically, microsomes were isolated from human, cynomolgus monkey, dog, rat or athymic nude mouse testicular tissue. The compound to be tested was dissolved in dimethyl sulfoxide and diluted in 0.05M potassium phosphate buffer to give the desired concentrations of the test compound. The potassium phosphate buffer was at pH 7.4 for the human, monkey and dog lyase assays and at pH 7.2 for the rat and athymic nude mouse lyase assays. Assays also contained 1 mM NADPH, 5 mM glucose-6-phosphate, 1 IU/ml glucose-6-phosphate dehydrogenase (an NADPH regenerating system) and microsomal protein in a total volume of 0.2 mL. Control assays contained all components including dimethyl sulfoxide, but with no test compound. All assays were performed in duplicate. For determination of time dependent C17,20 lyase inactivation, the test compound was incubated with 20 to 60 μg/ml microsomal protein, buffer, and the NADPH regenerating system described above at 34° C. for 0 or 40 minutes. Aliquots (180 μl) were then removed and assayed for enzyme activity by addition to tritiated steroid substrate plus unlabeled steroid substrate to give a 200 μl total assay volume, and were subsequently incubated at 34° C. for 6 minutes. For determination of reversible inhibition by the test compound, the reaction was initiated by addition of substrate. The radiolabeled substrate used for human, cynomolgus monkey and dog lyase was [7-^3 H]-17α-hydroxypregnenolone, 11.2 Ci/mmole, 0.2 μCi total activity per assay. Unlabeled 17α-hydroxypregnenolone was added to give a total concentration of 1.0 μM or 0.3 μM for the human and monkey enzymes, and 0.08 μM for the canine enzyme. […] The radiolabeled substrate used for the rodent enzymes were [1,2-^3 H]-17α-hydroxyprogesterone (40-57 Ci/mmol; 0.2 μCi per assay). Unlabeled 17α-hydroxyprogesterone was added to give a total concentration of 0.1 μM for the rat enzyme (Km =0.1 μM) and 0.03 μM (Km =0.03 μM) for the athymic nude mouse enzyme. The total assay volume was 200 μl. The complete assay was incubated at 34° C. for 6 minutes. Each reaction was stopped by the addition of 5 ml of chloroform:methanol (2:1). Carrier steroids representing substrate and products and 0.8 ml of water were also added at this time. The carrier steroids for the human, monkey and dog lyase assays were 17α-hydroxypregnenolone, dehydroepiandrosterone and androstenediol. Carrier steroids for the rodent lyase assays were 17α-hydroxyprogesterone, androstenedione, and testosterone. The steroids were extracted by the method of Moore and Wilson (Methods in Enzymol., eds. O'Malley, B. W. and Hardman, J. G. 36, 1975, p. 466-474), the organic phase containing the steroids was evaporated using nitrogen gas, the residues dissolved in 18% tetrahydrofuran (v/v) in hexane, and the steroids were separated by HPLC on a Si60 (5 um) column (250×4 mm) using a gradient of 18-22% tetrahydrofuran (v/v) in hexane. Radioactivity in the steroid peaks was measured by a Radiomatic Model HS Flo-One detector.
The enzyme activity for each incubate was calculated from the percent conversion of substrate to products, and the results were expressed as percent inhibition of control. […] The Ki and kinact for time dependent inhibitors were determined by graphical analysis of Kitz-Wilson plots. When the compounds of the present invention were tested in the above procedure using human lyase, the following results were observed: […]

Experiment [3] concerns canine lyase. As to the kind of experiment: Inhibition of canine steroid C17,20 lyase (testicular microsomes). The class given is biochemical, dog. Particulars: canine; 1 μM; preincubation 40 min. Here is the method:
(§2) The activity of the present compounds as inhibitors of steroid C17,20 lyase was established using microsomal preparations of the steroid C17,20 lyase enzyme from human or laboratory animal testes. Human testes used for this purpose were obtained from therapeutic orchiectomies. Specifically, microsomes were isolated from human, cynomolgus monkey, dog, rat or athymic nude mouse testicular tissue. The compound to be tested was dissolved in dimethyl sulfoxide and diluted in 0.05M potassium phosphate buffer to give the desired concentrations of the test compound. The potassium phosphate buffer was at pH 7.4 for the human, monkey and dog lyase assays and at pH 7.2 for the rat and athymic nude mouse lyase assays. Assays also contained 1 mM NADPH, 5 mM glucose-6-phosphate, 1 IU/ml glucose-6-phosphate dehydrogenase (an NADPH regenerating system) and microsomal protein in a total volume of 0.2 mL. Control assays contained all components including dimethyl sulfoxide, but with no test compound. All assays were performed in duplicate. […] Radioactivity in the steroid peaks was measured by a Radiomatic Model HS Flo-One detector.
as §1

Experiment [4] deals with nude mouse lyase. The experiment can be described thus: Inhibition of athymic nude mouse steroid C17,20 lyase (testicular microsomes). Conditions: nude mouse; 0.01 μM; preincubation 40 min. It counts as biochemical. The procedure:
as §2, §1

Experiment [5] concerns rat lyase. The experiment can be described thus: Inhibition of rat steroid C17,20 lyase (testicular microsomes). The class given is biochemical. Particulars: rat; 0.1 μM; preincubation 40 min. The procedure: as §2, §1

The structures appear in SMILES notation.

As to `C[C@]12CC[C@H]3[C@@H](C=CC4=C(N)C(=O)CC[C@@]43C)[C@@H]1CC[C@@H]2OC1CC1` [Compound 1, 4-Amino-17β-(cyclopropyloxy)androsta-4,6-dien-3-one], in experiment [1], the Ki amounted to 339 nM and the kinact was found to be 0.0009 s⁻¹. In experiment [2] (preincubation 0 min), this compound yielded an inhibition at 1 µM of 69% and an inhibition at 10 µM of 95%. In experiment [2] (preincubation 40 min), this compound showed an inhibition at 1 µM of 84% and an inhibition at 10 µM of 98%.

For the compound `C[C@]12CC[C@H]3[C@@H](CCC4=C(N)C(=O)CC[C@@]43C)[C@@H]1CC[C@@H]2OC1CC1` [Compound 2, 4-Amino-17β-(cyclopropyloxy)androst-4-en-3-one], the figures for the “% Inhibition” value in experiment [3], in experiment [4] and in experiment [5] were 57%, 84% and 70%, respectively. In addition, the Ki in experiment [1] came out at 286 nM. Moreover, the kinact in experiment [1] was 0.0007 s⁻¹. For the same compound, the inhibition at 1 µM in experiment [2] (preincubation 0 min) was 79%; in experiment [2] (preincubation 40 min) it was 86%. Further, the inhibition at 10 µM in experiment [2] (preincubation 0 min) worked out at 96%; in experiment [2] (preincubation 40 min) it was 99%.
